In PMC3812159, “A Comparative Analysis of the Ubiquitination Kinetics of Multiple Degrons to Identify an Ideal Targeting Sequence for a Proteasome Reporter” (PLoS ONE, 2013):

Legend:
[1] = molecular target: T1, Hdm2 (Homo sapiens, UniProt Q00987); assay: Cell-free ubiquitination assay; assay type: biochemical; settings: 1 µM Hdm2, 1 µM Ube1, 10 µM UbcH5b, 10 µM peptide, wild type ubiquitin, 2 hours at 30°C
T1 construct: purchased Enzo Life Sciences
Protocol: Samples were run on gels and imaged as described above.
(§1) Figure 5 Variations in E3 ligase activity result in fluxuations in degron-based substrate ubiquitination. (A) To evaluate the impact of different levels of E3 ligase activity, the four top performing degron-based substrates (β-Catenin, Bonger, iNOS, and p53) were incubated in lysates from four different cell lines (HeLa, U937, THP-1, and HL60) in the ubiquitin pull down assay. Further, the assay was supplemented with wild type ubiquitin to examine polyubiquitin chain formation. All reaction mixtures were incubated for 2 hours at 37°C prior to continuation with the pull down assay. (B) The effects of a NEDD8 inhibitor (MLN-4924) and an E1 inhibitor (PYR-41) were examined on the TAZ-based substrate (a target of the SCF^βTrCP E3 ligase). The ubiquitin pull down was performed as previously described with the reactions incubated for 2 hours with the listed inhibitor concentrations at 37°C prior to continuation with the pull down assay. (C) A cell-free ubiquitination assay was performed on the p53-based substrate using an enzymatic cascade culminating with 1 µM Hdm2 and supplemented with wild type ubiquitin. Lane 1 contains all assay components, lane 2–4 were control experiments removing a member of the E1–E3 enzymatic cascade. […]

[2] = test system: HeLa S100 cytosolic lysates as the source of E1, E2, and E3 enzymes; assay: Ubiquitin pull down assay with methylated ubiquitin, multi-monoubiquitination kinetic model; assay type: biochemical; settings: ratio of fitted rate constants, >1 favours ubiquitination, <1 degradation
From the text: A second model based on substrate multi-monoubiquitination was developed and evaluated. This model assumed that the generation of di-, tri-, and tetra-ubiquitinated species was the result of multiple methylated ubiquitins being conjugated to the multiple available lysines found on the degron-based substrate (Figure 3a). As opposed to the polyubiquitination model, the multi-monoubiquitination model accurately fit the data for all eight degron-based substrates (Figure 3b–d, Figure S4 in File S1, Table 2). Using this model, kinetic rate constants for all ubiquitination (k1 for mono-, k2 for di-, k3 for tri-, and k4 for tetra-) and peptidase-dependent degradation steps (Table 2) were calculated. The multi-monoubiquitination model nicely corresponded to the observed results in Figure 2. […] The model also captured the preference for di-ubiquitination of the Cyclin D1 degron (k2 is two-fold greater than k1) and the equal preference of mono- and di-ubiquitination states found in the HIF-1α degron (k1 of 2.6 and k2 of 3.0). Further, the similar behavior and observed kinetics for IFNAR and TAZ degrons were mostly likely due to the fact that these degrons are recognized by the same E3 ligase, SCF^βTrCP (Table 1). To test the robustness of the multi-monoubiquitination model, a ninth substrate based on the degron from the protein β-Catenin was assessed. This substrate was selected because it is ubiquitinated by the same E3 ligase as TAZ and IFNAR1, SCF^βTrCP. The model accurately fit the data for the multi-monoubiquitination of the β-Catenin degron-based substrate with similar rate constants compared to the TAZ and IFNAR1-based substrates (Table 2). Finally, it was important to assess the validity of the model by addressing the relative goodness of fit between the experimental data and the model predictions as determined from the multi-monoubiquitination model. For this particular analysis it was decided to calculate the sample Pearson correlation coefficient (Eq. S10 in File S1), a widely used metric to measure the dependence between two variables. A correlation coefficient was calculated between the model predictions and experimental data for mono-, di-, tri-, and tetra-ubiquitinated substrate for all nine degron-based substrates (Table S1 in File S1). As per convention, a positive value approaching 1 corresponds to a very good fit, which is observed for all nine substrates indicating a good fit between model and data.

[3] = test system: endogenous proteases and peptidases found in the S100 lysates
Protocol: The in vitro ubiquitination assay was carried out at the indicated times at 37°C in a total reaction volume of 25 µL containing assay buffer (10 mM Tris-HCl pH 7.6 and 5 mM MgCl2) with 2 mM DTT, 20 µg/mL ubiquitin aldehyde (Boston Biochem), 400 µg/mL methylated ubiquitin (Enzo Life Sciences), 1×ATP energy regenerating solution (ATP-ERS, Boston Biochem), 100 µM of the proteasome inhibitor MG-132 (EMD Chemicals), 2 mg/mL HeLa S100 cytosolic lysates as the source of E1, E2, and E3 enzymes, 750 ng of indicated peptide substrate, and inhibitors Complete ULTRA and PhosSTOP (Roche). Reactions were halted by addition of 2× tricine sample buffer (Bio-Rad) and subsequent boiling. Samples were loaded onto SDS page gels (precast 16.5% Mini PROTEAN Tris-Tricine, Bio-Rad) using 1× tris-tricine running buffer and visualized with a Typhoon Imager (GE Healthcare Life Sciences). Gels were quantified using ImageJ (US National Institute of Health) by comparing sample intensity to unreacted parent peptide intensity, which is not depicted in the gels.
Ubiquitin pull down assays were performed similarly to the in vitro ubiquitination assay as described above, with the exception of a total volume of 100 µL and 4.2 µg of peptide substrate. At the end of the indicated times, samples were incubated with Control-Agarose beads (LifeSensors), diluted in TBS-T buffer (20 mM Tris-HCl pH 8.0, 150 mM NaCl, and 0.1% v/v Tween-20), for 60 min on a tube rotator at 4°C. Samples were subsequently centrifuged at 1800×g for 5 min to pellet and remove control beads. The supernatant was transferred to solution of Agarose-TUBES1 (LifeSensors) diluted in TBS-T and incubated overnight on a tube rotator at 4°C. Ubiquitin-bound beads were washed 5× with TBS-T and then the samples were eluted off of the bead with 2× tricine sample buffer, boiled for 5 min, and then isolated by centrifugation for 5 min at 13000×g. Samples were loaded onto an SDS PAGE gel, electrophoresed, visualized and quantified as described above.
The series of ordinary differential equations were solved in MATLAB using ODE15s and the boundary conditions defined in equations S1–S6. Kinetic rate constants were determined using a Markov Chain Monte Carlo (MCMC) algorithm in MATLAB by minimizing the cumulative sum of the squared deviations (cSSD), as defined by equations S8–S9, between the calculated and experimental data similar to previous work by Cirit et. al. [23].
To accomplish this objective, a kinetic model was developed to describe the step-wise ubiquitination of the degron-based substrates. The goal of this model was to both determine the reaction kinetics for ubiquitin transfer to the degron-based substrates and distinguish polyubiquitination from multi-monoubiquitination. […] Each step in the reaction was described by a corresponding rate constant (k1–k9). Due to the presence of the deubiquitinating enzyme (DUB) inhibitor ubiquitin aldehyde, substrate deubiquitination was neglected. Further, the proteasome inhibitor MG-132 was added at an appropriate amount to neglect proteasome-mediated degradation of the substrates.

[4] = test system: SCF^βTrCP; settings: published substrate; optimized test tube reaction with excess E1, E2, and E3 ligases, no competing peptidases; cited from earlier work
From the text: While there exist kinetic studies of specific E3 ligases, [47], [48] and individual degrons there has not been a comprehensive analysis of ubiquitination kinetics of multiple degrons in a single study. The presented work allowed for the calculation of rate constants for multiple degrons in a single cell line, effectively comparing the ubiquitination kinetics of different E3 ligase targets.

[5] = test system: TAZ-based substrate ubiquitination (a target of the SCF^βTrCP E3 ligase); assay: Ubiquitin pull down of TAZ-based substrate with inhibitors of the E1-E3 cascade; assay type: biochemical; settings: 2 hours at 37°C with inhibitor, gel, concentrations only in Figure 5b
Protocol: as §1, with “assay.” for “assay. (C) A cell-free ubiquitination assay was performed on the p53-based substrate using an enzymatic cascade culminating with 1 µM Hdm2 and supplemented with wild type ubiquitin. Lane 1 contains all assay components, lane 2–4 were control experiments removing a member of the E1–E3 enzymatic cascade.”
To perform a more precise analysis of the impact of variations in E3 ligase activity on degron-based substrate ubiquitination and to identify any issues with peptide specificity, the second route of experimentation was the application of known inhibitors of the E1–E3 enzymatic cascade. […] To examine the effects of partially inhibiting SCF^βTrCP, TAZ-based substrate ubiquitination was assessed in the presence and absence of this inhibitor (Figure 5b).

T1 sequence (Q00987 whole entry): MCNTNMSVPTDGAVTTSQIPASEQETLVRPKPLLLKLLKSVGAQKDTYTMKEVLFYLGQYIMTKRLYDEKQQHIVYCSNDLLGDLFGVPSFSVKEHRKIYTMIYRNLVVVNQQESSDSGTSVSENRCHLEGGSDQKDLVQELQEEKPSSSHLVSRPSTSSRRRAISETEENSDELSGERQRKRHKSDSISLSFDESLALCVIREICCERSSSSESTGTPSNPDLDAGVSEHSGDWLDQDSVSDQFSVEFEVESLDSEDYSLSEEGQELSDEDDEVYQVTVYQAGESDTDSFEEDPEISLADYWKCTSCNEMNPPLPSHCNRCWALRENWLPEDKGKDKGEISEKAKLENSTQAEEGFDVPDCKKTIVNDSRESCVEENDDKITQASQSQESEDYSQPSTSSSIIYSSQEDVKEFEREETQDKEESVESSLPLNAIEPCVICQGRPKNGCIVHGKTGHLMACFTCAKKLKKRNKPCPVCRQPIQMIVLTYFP

CN(C)CCCNc1c2c(=O)n(C)c(=O)nc-2n(C)c2ccccc12 [HLI-373]
effect of inhibitor on Hdm2-dependent ubiquitination of the p53-based substrate ([1]; inhibitor 1, 10 µM): No decrease

Cc1ccc2ccc(C(Nc3ccccc3)c3ccccc3)c(O)c2n1 (stereo not shown) [NSC-66811]
effect of inhibitor on Hdm2-dependent ubiquitination of the p53-based substrate ([1]; inhibitor 1 µM dose): pronounced decrease

KAWQQQSYLDSGIHSGATTTAPK(FAM)KKK [β-Catenin, fluorescein-tagged degron-based peptide substrate from β-Catenin, E3 ligase SCF^βTrCP]
k1/k5, mono-ubiquitination vs. degradation of unmodified substrate [2]: 1.55
k6, rate constant for peptidase-dependent degradation of mono-ubiquitinated substrate [3]: 0.1 (1/min)*10^3
k7, rate constant for peptidase-dependent degradation of di-ubiquitinated substrate [3]: 0.1 (1/min)*10^3
k8, rate constant for peptidase-dependent degradation of tri-ubiquitinated substrate [3]: 1.0 (1/min)*10^3
k9, rate constant for peptidase-dependent degradation of tetra-ubiquitinated substrate [3]: 3.0 (1/min)*10^3
rate constant for β-Catenin ubiquitination previously reported [4]: 0.28 min⁻¹

NS(=O)(=O)OC[C@@H]1C[C@@H](n2ccc3c(N[C@H]4CCc5ccccc54)ncnc32)C[C@@H]1O [MLN-4924]
effect of inhibitor on ubiquitination of the TAZ-based substrate [5]: slightly impaired

CCOC(=O)c1ccc(N2NC(=O)/C(=C/c3ccc([N+](=O)[O-])o3)C2=O)cc1 [PYR-41]
effect of inhibitor on ubiquitination of the TAZ-based substrate [5]: reduced ubiquitination
